Measurements taken from the supplement of paper PMC13380429.
± gives the standard deviation of the averaged measurements.

Key:
Details in all cases: 72 h
[1] = tested on: Caco-2; test: relative viability EC50 (midpoint between 100% and the lowest measured viability); higher = less toxic
[2] = tested on: Calu-3; test: as above
[3] = tested on: Vero E6; test: as above
[4] = tested on: HepG2; test: as above
[5] = tested on: U2OS; test: as above
[6] = tested on: Caco-2; test: drug sensitivity score (DSS) for viability; higher = more toxic; extreme values may be limits of the assay
[7] = tested on: Calu-3; test: as above
[8] = tested on: Vero E6; test: as above
[9] = tested on: HepG2; test: as above
[10] = tested on: U2OS; test: as above
[11] = tested on: Caco-2; test: cell viability relative to DMSO; higher = less toxic
[12] = tested on: Calu-3; test: as above
[13] = tested on: Vero E6; test: as above
[14] = tested on: HepG2; test: as above
[15] = tested on: U2OS; test: as above

SMILES | relative viability EC50 [1] | relative viability EC50 [2] | relative viability EC50 [3] | relative viability EC50 [4] | relative viability EC50 [5] | drug sensitivity score [6] | drug sensitivity score [7] | drug sensitivity score [8] | drug sensitivity score [9] | drug sensitivity score [10] | cell viability ([11]; 1 nM) | cell viability ([11]; 10 nM) | cell viability ([11]; 100 nM) | cell viability ([11]; 1000 nM) | cell viability ([11]; 10000 nM) | cell viability ([12]; 1 nM) | cell viability ([12]; 10 nM) | cell viability ([12]; 100 nM) | cell viability ([12]; 1000 nM) | cell viability ([12]; 10000 nM) | cell viability ([13]; 1 nM) | cell viability ([13]; 10 nM) | cell viability ([13]; 100 nM) | cell viability ([13]; 1000 nM) | cell viability ([13]; 10000 nM) | cell viability ([14]; 1 nM) | cell viability ([14]; 10 nM) | cell viability ([14]; 100 nM) | cell viability ([14]; 1000 nM) | cell viability ([14]; 10000 nM) | cell viability ([15]; 1 nM) | cell viability ([15]; 10 nM) | cell viability ([15]; 100 nM) | cell viability ([15]; 1000 nM) | cell viability ([15]; 10000 nM)
CN(C)CC/C=C1/c2ccccc2Sc2ccc(Cl)cc21 [chlorprothixene] | > 10 µM | > 10 µM | > 10 µM | > 10 µM | > 10 µM | 0 | 0.1 | 0 | 0.6 | 0 | 122% | 99.5% | 96.2% | 90.5% | 100% | 103% | 101% | 106% | 106% | 84.8% | 103% | 110% | 103% | 106% | 89.2% | 99.6% | 103% | 103% | 98.4% | 82.9% | 104% | 101% | 102% | 99.7% | 100%
NC1CCN(c2c(F)cc3c(=O)c(C(=O)O)cn(C4CC4)c3c2Cl)C1 (stereo not given) [clinafloxacin] | > 10 µM | > 10 µM | > 10 µM | > 10 µM | > 10 µM | 0 | 0 | 0 | 0 | 0 | 98.7% | 100% | 89.7% | 106% | 108% | 95.5% | 94.4% | 94.7% | 97.6% | 99.5% | 102% | 97% | 95% | 98.7% | 104% | 115% | 97% | 108% | 97.3% | 109% | 95% | 102% | 97.5% | 102% | 102%
CC(C)(C)C(=O)OCC(=O)[C@H]1CC[C@H]2[C@@H]3CCC4=CC(=O)CC[C@]4(C)[C@H]3CC[C@]12C [desoxycorticosterone-pivalate] | > 10 µM | > 10 µM | > 10 µM | > 10 µM | > 10 µM | 0 | 0 | 0 | 0 | 0 | 104% | 97% | 103% | 99.7% | 95.3% | 98.9% | 90.9% | 98.6% | 89.2% | 101% | 102% | 99% | 101% | 99.8% | 101% | 97% | 98.8% | 95.7% | 89% | 98.2% | 101% | 98.1% | 99.1% | 99.4% | 97.9%
COc1ccc(-c2cc(C(F)F)nn2-c2ccc(S(N)(=O)=O)cc2)cc1F [deracoxib] | > 10 µM | > 10 µM | > 10 µM | > 10 µM | > 10 µM | 0 | 0 | 0 | 1.5 | 0 | 99.9% | 93.5% | 98.1% | 98.6% | 102% | 100% | 93.8% | 104% | 93.3% | 109% | 97.3% | 99.7% | 94.2% | 101% | 98.8% | 96.4% | 112% | 90.5% | 89.7% | 86.5% | 91.3% | 90.2% | 93.7% | 88.7% | 107%
NCc1cc(O)no1 [muscimol] | > 10 µM | > 10 µM | > 10 µM | > 10 µM | > 10 µM | 0 | 0 | 0 | 0 | 0 | 94.7% | 96.5% | 98.4% | 99.5% | 103% | 91.6% | 95.7% | 98.3% | 104% | 97.3% | 98.8% | 97% | 93.1% | 97.1% | 101% | 96.8% | 105% | 97.7% | 98.1% | 94.5% | 101% | 94.6% | 99.6% | 98.6% | 97.3%
C[C@]12CC[C@@H](O)C[C@H]1CC[C@@H]1[C@@H]2CC[C@]2(C)C(=O)CC[C@@H]12 [3-alpha-hydroxy-5-beta-androstan-17-one] | > 10 µM | > 10 µM | > 10 µM | > 10 µM | > 10 µM | 0.233 ± 0.4 | 0 | 0 | 0.233 ± 0.4 | 0 | 97.8 ± 5% | 104 ± 14% | 97.6 ± 4.1% | 98.8 ± 3.4% | 92.9 ± 15% | 99.6 ± 4.8% | 97.4 ± 4% | 96.1 ± 3.2% | 97.8 ± 6.8% | 101 ± 3.2% | 99.8 ± 2.9% | 101 ± 1.3% | 103 ± 3.8% | 103 ± 2.3% | 94.3 ± 1.5% | 101 ± 8.8% | 96.6 ± 5.6% | 102 ± 5.1% | 104 ± 7.5% | 87.4 ± 9.7% | 102 ± 2.1% | 97.8 ± 1.6% | 102 ± 2.6% | 98.6 ± 2.8% | 99.9 ± 3.2%
O=C(CSc1nc2c(c(=O)n1-c1ccccc1)SCC2)Nc1ccc(-c2ccccc2)cn1 [IWP-L6] | > 10 µM | > 10 µM | > 10 µM | > 10 µM | > 10 µM | 0 | 0 | 0 | 0 | 0 | 89.2% | 102% | 96.2% | 92.6% | 90.1% | 94.4% | 96.6% | 91.7% | 98.8% | 87.5% | 97% | 97.7% | 95.3% | 95.1% | 96.1% | 100% | 92.1% | 105% | 106% | 99.3% | 95.4% | 97.6% | 93.4% | 97.1% | 94.9%
CC(CNC1CCCCC1)OC(=O)c1ccccc1 (stereo not given) [hexylcaine] | > 10 µM | > 10 µM | > 10 µM | > 10 µM | > 10 µM | 0 | 0 | 0 | 0 | 0 | 99% | 88.5% | 98% | 105% | 102% | 104% | 107% | 95.2% | 103% | 95.5% | 97.3% | 102% | 96.8% | 93.1% | 105% | 106% | 102% | 91% | 88.5% | 102% | 103% | 101% | 99.1% | 103% | 104%
CC(C)CCNc1ncccc1C(=O)N1CCN(Cc2ccccc2)CC1 [NSI-189] | > 10 µM | > 10 µM | > 10 µM | > 10 µM | > 10 µM | 0 | 0 | 0 | 0 | 0 | 96.8% | 97.8% | 100% | 92.9% | 106% | 96.3% | 108% | 92.5% | 92.7% | 115% | 96.5% | 95.7% | 94.9% | 93.3% | 104% | 108% | 91.5% | 102% | 91.2% | 103% | 97.5% | 98% | 95.5% | 97.8% | 99.3%
C[C@@H]1[C@H](O)[C@@H](C)/C=C/C=C/C=C/C=C/C=C/C=C/C=C/[C@H](O[C@@H]2O[C@H](C)[C@@H](O)[C@H](N)[C@@H]2O)C[C@@H]2O[C@](O)(C[C@@H](O)C[C@@H](O)[C@H](O)CC[C@@H](O)C[C@@H](O)CC(=O)O[C@H]1C)C[C@H](O)[C@H]2C(=O)O [amphotericin-b] | > 10 µM | > 10 µM | > 10 µM | > 10 µM | > 10 µM | 0 | 0 | 0 | 0 | 0 | 106% | 91.1% | 108% | 100% | 98.6% | 98.4% | 105% | 95.7% | 103% | 99.5% | 101% | 102% | 103% | 101% | 99.6% | 97.4% | 102% | 101% | 101% | 101% | 101% | 97% | 101% | 97.6% | 101%
O=C(Oc1ccccc1C(=O)O)c1ccccc1O [sasapyrine] | > 10 µM | > 10 µM | > 10 µM | > 10 µM | > 10 µM | 2.6 | 0 | 0.4 | 0 | 0 | 106% | 95.3% | 90.3% | 82.8% | 81.9% | 87.8% | 108% | 100% | 100% | 93% | 110% | 99.9% | 102% | 88.3% | 89.8% | 93.1% | 86.4% | 100% | 91.7% | 105% | 100% | 98.6% | 101% | 97.2% | 94.9%
Cc1onc(O)c1C[C@@H](N)C(=O)O (racemic) [AMPA-(RS)] | > 10 µM | > 10 µM | > 10 µM | > 10 µM | > 10 µM | 0 | 0 | 0 | 0 | 0 | 99.7 ± 0.42% | 89.15 ± 0.071% | 98.2 ± 3.9% | 93.2 ± 3.2% | 93 ± 3.8% | 95.7 ± 6.4% | 98.5 ± 1.5% | 95.8 ± 5% | 99.1 ± 3.5% | 106 ± 12% | 99 ± 3.2% | 98.9 ± 1.1% | 93.8 ± 2.1% | 97.2 ± 1.3% | 104 ± 0.78% | 92.3 ± 9.6% | 102 ± 13% | 96.5 ± 5.2% | 101 ± 5.9% | 108 ± 5.2% | 97.1 ± 1.8% | 95.6 ± 1.3% | 98.2 ± 2.3% | 98.5 ± 3.6% | 102 ± 2.5%
CC(NC(=O)c1ccccc1/N=C/c1c(O)ccc2ccccc12)c1ccccc1 (stereo not given) [sirtinol] | > 10 µM | > 10 µM | > 10 µM | > 10 µM | > 10 µM | 0 | 0 | 0 | 0 | 0 | 93.6% | 97.8% | 101% | 105% | 110% | 96.5% | 97.6% | 104% | 112% | 104% | 97.1% | 91.2% | 93% | 92.4% | 101% | 101% | 106% | 90.7% | 96.9% | 100% | 96.8% | 102% | 96.1% | 101% | 103%
COc1cccc2c1C(=O)c1c(O)c3c(c(O)c1C2=O)C[C@@](O)(C(C)=O)C[C@@H]3O[C@H]1C[C@H](N)[C@H](O)[C@H](C)O1 [daunorubicin] | 0.145 µM | 0.177 µM | 0.963 µM | 0.059 µM | 0.187 µM | 15.8 | 16.9 | 10.8 | 25.7 | 20.7 | 86.3% | 93.4% | 74.6% | 29.8% | 28% | 99.7% | 96% | 69.3% | 29.4% | 16.1% | 93.7% | 97.8% | 87.9% | 54.3% | 4.6% | 108% | 75.8% | 43.3% | 2% | 0.2% | 96.6% | 103% | 80.9% | 2.4% | 0.1%
